From patent publication US20220056012A1, “AMORPHOUS FORM OF A MALT1 INHIBITOR AND FORMULATIONS THEREOF” (Janssen Pharmaceutica NV, priority 2020, published 2022)
Each block holds one compound with its values, some of them ahead of it.

Assays:
Assay type in all cases: physicochemical
[1] = Dissolution in 900 mL FaSSIF medium at pH 6.5 (FIG. 20); details: pH 6.5, capsules in blend
Protocol: FIG. 20: Dissolution rates of different compositions in 900 mL FaSSIF medium at pH 6.5. The different compositions are: 25 mg ASD capsule HPMC AS MG 1/3 in blend; 50 mg ASD capsule HPMC AS MG 1/1 in blend; 50 mg ASD capsule EL100-55 1/1 in blend; 50 mg LFHG PEG1500 (liquid filled) capsule; 100 mg capsule amorphous API in blend; 25 mg ASD capsule EL100-55 1/3 in blend; and 100 mg capsule crystalline API in blend.

[2] = Hygroscopicity of crystalline form
[3] = 2-phase (SGF/FaSSIF) miniaturized dissolution of films; details: SGF-FaSSIF, 37° C., films with 200 μg Compound A
Protocol: In vitro, 2-phase (SGF/FaSSIF) miniaturized dissolution was performed, where the amount of dissolved compound A was monitored in function of time. Before starting the dissolution assay, the films were stored for one day at room temperature. By doing so, most of the residual solvent had evaporated. Actual dissolution experiments were performed in 96 1 mL glass vials using the Hamilton STAR plus liquid handling platform for both sampling and sample preparation. Before adding the dissolution media to the films, an equilibration time of approximately 60 minutes was needed to preheat the media to 37° C. After equilibration, 300 μL of preheated SGF (37° C., pH 1.3) was added to the amorphous solid dispersions. After 15 minutes of incubation in SGF, 600 μL of preheated concentrated FaSSIF (37° C., pH 10.5) was added to the samples. […] At predetermined time intervals, aliquots were withdrawn from the dissolution media and filtered through a 0.45 μm GHP membrane filter. Subsequently, the filtered solutions were quantitatively diluted (10×) with N-methylpyrrolidone (NMP) to prevent possible precipitation. The amount of dissolved compound A was determined by UPLC. Films were incubated at 37° C. throughout the entire assay. Experiments were performed in duplicate.

[4] = Crystalline conversion of isolated amorphous Compound A on storage
[5] = Glass transition temperature (Tg) by DSC, Tg vs % RH; details: amorphous Compound A without polymer
Protocol: The Tg vs RH results for HPMCAS-LG amorphous SDDs (FIG. 18 and Table 10) show the Tg's range from 111 to 119° C. under dry conditions and are depressed down to 52 to 59° C. at 75% RH. Both dry and wet Tg increase with increased drug loading.

[6] = Stability of amorphous formulations by XRD at normal and accelerated conditions
Protocol: Stability of the prepared formulations of Compound A was measured by XRD at normal and accelerated conditions, showing that all the prepared formulations of the compound, be it alone or combined with a polymer, are amorphous.

dissolution rate [1]: dropped considerably
hygroscopicity [2]: hygroscopic behavior
SMILES: O=C(Nc1ccnc(C(F)(F)F)c1)c1cnn(-c2cccc3c(=O)[nH]ccc23)c1C(F)(F)F [Form I, 1-(1-oxo-1,2-dihydroisoquinolin-5-yl)-5-(trifluoromethyl)-N-[2-(trifluoromethyl)pyridin-4-yl]-1H-pyrazole-4-carboxamide]

initial release, concentration [3]: 60 to 80 µg/mL
solid state after storage (stability DSC data) ([4]; 6 MOS at 40°/75% RH, open-dish): still amorphous
crystalline conversion after exposure ([4]; 10% RH, 50° C., 28 days): no crystalline conversion
crystalline conversion after exposure ([4]; 75% RH, 40° C., open condition, 6 months): no crystalline conversion
crystalline conversion after exposure ([4]; 75% RH, 50° C., 28 days): no crystalline conversion
crystalline conversion after exposure ([4]; 75% RH, 50° C., closed condition, 6 months): no crystalline conversion
glass transition temperature [5]: 133 °C
glass transition temperature ([5]; listed as spray dried Compound A): 132 °C
XRD result ([6]; 40° C. closed 1M): amorph.
XRD result ([6]; 40° C. closed 2M): amorph.
XRD result ([6]; 40° C. closed 6M): amorph.
XRD result ([6]; 40° C./75% RH open 6M): amorph.
XRD result ([6]; 40° C/75% RH open 1M): amorph.
XRD result ([6]; 40° C/75% RH open 2M): amorph.
XRD result ([6]; 50° C. closed 1M): amorph.
XRD result ([6]; 50° C. closed 2M): amorph.
XRD result ([6]; 50° C. closed 6M): amorph.
XRD result ([6]; RT closed 1M): amorph.
XRD result ([6]; RT closed 2M): amorph.
XRD result ([6]; RT closed 6M): amorph.
XRD result ([6]; RT/56% RH open 1M): amorph.
XRD result ([6]; RT/56% RH open 2M): amorph.
XRD result ([6]; RT/56% RH open 6M): amorph.
XRD result ([6]; T0): amorph.
SMILES: O=C(Nc1ccnc(C(F)(F)F)c1)c1cnn(-c2cccc3c(=O)[nH]ccc23)c1C(F)(F)F [amorphous form of Compound A, 1-(1-oxo-1,2-dihydroisoquinolin-5-yl)-5-(trifluoromethyl)-N-[2-(trifluoromethyl)pyridin-4-yl]-1H-pyrazole-4-carboxamide]
